Test results: US20040248913A1, “(Pyridinyl and pyrimidyl) trienoic acid derivatives as retinoid x receptor modulators” (priority 2001, published 2004)

Target: T1, RXRα:PPARγ heterodimer (Homo sapiens, UniProt P19793)
T1 construct: expressed in transfected cells; host or cells: CV-1 cells
T1 sequence (P19793 1-462): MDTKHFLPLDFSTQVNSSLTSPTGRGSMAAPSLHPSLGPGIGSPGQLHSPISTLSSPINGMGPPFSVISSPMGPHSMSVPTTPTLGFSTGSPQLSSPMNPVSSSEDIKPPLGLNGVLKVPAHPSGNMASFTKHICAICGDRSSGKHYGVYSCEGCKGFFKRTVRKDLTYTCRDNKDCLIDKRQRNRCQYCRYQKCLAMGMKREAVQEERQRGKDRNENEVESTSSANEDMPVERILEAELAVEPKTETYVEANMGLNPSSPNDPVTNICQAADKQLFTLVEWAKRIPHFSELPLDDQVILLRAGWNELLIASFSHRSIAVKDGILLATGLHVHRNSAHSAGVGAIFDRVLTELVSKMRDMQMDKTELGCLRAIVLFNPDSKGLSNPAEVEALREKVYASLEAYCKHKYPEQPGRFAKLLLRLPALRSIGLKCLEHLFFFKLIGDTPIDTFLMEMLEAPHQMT
T1 sequence (P37231 1-505 partner): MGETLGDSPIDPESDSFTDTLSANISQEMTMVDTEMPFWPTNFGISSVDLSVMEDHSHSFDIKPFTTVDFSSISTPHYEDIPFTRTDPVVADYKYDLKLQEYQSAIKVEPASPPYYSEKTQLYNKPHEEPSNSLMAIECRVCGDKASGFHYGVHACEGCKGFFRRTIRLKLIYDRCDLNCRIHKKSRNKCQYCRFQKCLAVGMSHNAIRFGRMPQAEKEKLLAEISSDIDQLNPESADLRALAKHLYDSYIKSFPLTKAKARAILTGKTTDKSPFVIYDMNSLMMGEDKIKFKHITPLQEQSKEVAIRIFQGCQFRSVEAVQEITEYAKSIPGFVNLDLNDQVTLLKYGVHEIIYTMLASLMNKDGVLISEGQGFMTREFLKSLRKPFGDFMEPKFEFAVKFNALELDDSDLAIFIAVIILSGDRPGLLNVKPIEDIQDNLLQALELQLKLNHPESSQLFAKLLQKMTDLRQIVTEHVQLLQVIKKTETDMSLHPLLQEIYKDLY
Test: RXR:PPARγ heterodimer cotransfection assay in CV-1 cells
Type: cell-based
Conditions: for Synergy Efficacy (%): maximal response in presence of 100 nM BRL49653 relative to response of BRL49653 alone; for Agonist Efficacy (%): maximal response relative to response of the thiazolidinedione BRL49653
Text: In the co-transfection assay, cloned cDNA for one or more IRs (e.g., human RARα, RXRα, or PPARγ), alone or in combination (i.e. for heterodimer assays) under the control of a constitutive promoter (e.g., the SV 40, RSV or CMV promoter) is introduced by transfection (a procedure to introduce exogenous genes into cells) into a background cell substantially devoid of endogenous IRs. These introduced gene(s) direct the recipient cells to make the IR protein(s) of interest. A further gene is also introduced (co-transfected) into the same cells in conjunction with the IR gene(s). This further gene, comprising the cDNA for a reporter protein, such as firefly luciferase (LUC), controlled by an appropriate hormone responsive promoter containing a hormone response element (HRE). This reporter plasmid functions as a reporter for the transcriptional-modulating activity of the target IR(s). Thus, the reporter acts as a surrogate for the products (mRNA then protein) normally expressed by a gene under control of the target receptor(s) and their native hormone(s).
The compounds of the present invention were further tested for activity on RXR heterodimers with RARα, RARγ or PPARγ utilizing the cotransfection assay in CV-1 cells as described in Example 6A. The RXR:RAR heterodimer cotransfection assays utilized the following expression plasmids and reporter plasmid: pRShRARα (10 ng/well, Giguere et al., Nature, 330:624 (1987) the disclosure of which is herein incorporated by reference) or pRShRARγ (10 ng/well, Ishikawa et al., Mol. Endocrin., 4:837 (1990) the disclosure of which is herein incorporated by reference) with Δ-MTV-LUC (50 ng/well, Hollenberg and Evans, Cell, 55:899 (1988), the disclosure of which is herein incorporated by reference) containing an RARE which is referred to as two copies of the TRE-palindromic response element described in Umesono et al., Nature, 336:262 (1988), the disclosure of which is herein incorporated by reference. For the RSR:PPARγ heterodimer cotransfection assay, the RXRα receptor expression plasmid, pRShRXRα (10 ng/well), was cotrasfected with the PPARγ expression plasmid, pCMVhPPARγ (10 ng/well), and a reporter plasmid containing three copies of a PPARγ response element (pPREA3-tk-LUC, 50 ng/well; Mukherjee et al., Journ. Biol. Chem., 272:8071-8076 (1997) and references cited therein, the disclosures of which are herein incorporated by reference).
Cotransfections were performed as described in Example 6A. […] Antagonist efficacy and IC50 values were determined as in Example 6A.
Compounds of the present invention were also tested for the ability to synergize with an RAR or PPARγ agonist in the context of an RXR heterodimer. For these assays the compounds were added to the cells with a fixed concentration of TTNPB (1×10^−9 M) for RXR:RAR heterodimer assay or BRL 49633 (1×10^−7 M) for the RXR:PPARγ heterodimer assay. Efficacy of the compounds of the present invention in the agonist and synergy assays was calculated as the maximum response obtained over the range of the dose response curve relative to the maximum response obtained by the reference agonist. Antagonist efficacy was determined as a function (%) of maximal inhibition.
Kliewer et al., Nature 358:771-774 (1992). To examine the effects of the compounds of the present invention on the transcriptional properties of the RXR:PPARγ, a heterodimer cotransfection assay as described above was employed.

| Synergy Efficacy (%) | Agonist Efficacy (%) | Structure (SMILES) | RXR:PPARγ agonist activity alone (in words) (alone) | RXR:PPARγ activity in combination with the PPARγ ligand (in words) (in combination with the PPARγ ligand) |
| --- | --- | --- | --- | --- |
| 150 | 32 | CCCOc1c(\C(C)=C/C=C/C(C)=C/C(=O)O)cc(C(C)C)nc1C(C)C [Example 2, 7-(2,6-Diisopropyl-3-propoxy-pyridin-4-yl)-3-methyl-octa-2(E),4(E),6(Z)-trienoic Acid] |  |  |
| 182 | 42 | CCOc1c(\C(C)=C/C=C/C(C)=C/C(=O)O)cc(C(C)C)nc1C(C)C [Example 3, 7-(2,6-Diisopropyl-3-ethoxy-pyridin-4-yl)-3-methyl-octa-2(E),4(E),6(Z)-trienoic acid] |  |  |
| 233 | 53 | C/C(=C/C=C/C(C)=C/C(=O)O)c1cc(C(C)C)nc(C(C)C)c1OCC(F)F [Example 4, 7-[3-(2,2-Difluoro-ethoxy)-2,6-diisopropyl-pyridin-4-yl]-3-methyl-octa-2(E),4(E),6(Z)-trienoic acid] |  |  |
| 107 | 55 | C/C(=C/C=C/C(C)=C/C(=O)O)c1cc(C(C)C)nc(C(C)C)c1OCC(F)(F)F [Example 5, 7-[2,6-Diisopropyl-3-(2,2,2-trifluoro-ethoxy)-pyridin-4-yl]-3-methyl-octa-2(E),4(E),6(Z)-trienoic acid] |  |  |

| Structure (SMILES) | Synergy Efficacy (%) | Agonist Efficacy (%) | RXR:PPARγ agonist activity alone (in words) (alone) | RXR:PPARγ activity in combination with the PPARγ ligand (in words) (in combination with the PPARγ ligand) |
| --- | --- | --- | --- | --- |
| CCCCOc1c(\C(C)=C/C=C/C(C)=C/C(=O)O)cc(C(C)C)nc1C(C)C [Example 1, 7-(3-Butoxy-2,6-diisopropyl-pyridin-4-yl)-3-methyl-octa-2(E),4(E),6(Z)-trienoic Acid] | 25 | 11 | partial agonists | stronger activity |
